Patent publication US8822449B2, “Substituted aminoindanes and analogs thereof, and the pharmaceutical use thereof” (Sanofi, priority 2008, dated 2014)

Target: T1, sodium-proton exchanger of subtype 3 (NHE3) (Homo sapiens, UniProt P48764)
T1 construct: expressed in transfected cells
T1 sequence (P48764 26-834): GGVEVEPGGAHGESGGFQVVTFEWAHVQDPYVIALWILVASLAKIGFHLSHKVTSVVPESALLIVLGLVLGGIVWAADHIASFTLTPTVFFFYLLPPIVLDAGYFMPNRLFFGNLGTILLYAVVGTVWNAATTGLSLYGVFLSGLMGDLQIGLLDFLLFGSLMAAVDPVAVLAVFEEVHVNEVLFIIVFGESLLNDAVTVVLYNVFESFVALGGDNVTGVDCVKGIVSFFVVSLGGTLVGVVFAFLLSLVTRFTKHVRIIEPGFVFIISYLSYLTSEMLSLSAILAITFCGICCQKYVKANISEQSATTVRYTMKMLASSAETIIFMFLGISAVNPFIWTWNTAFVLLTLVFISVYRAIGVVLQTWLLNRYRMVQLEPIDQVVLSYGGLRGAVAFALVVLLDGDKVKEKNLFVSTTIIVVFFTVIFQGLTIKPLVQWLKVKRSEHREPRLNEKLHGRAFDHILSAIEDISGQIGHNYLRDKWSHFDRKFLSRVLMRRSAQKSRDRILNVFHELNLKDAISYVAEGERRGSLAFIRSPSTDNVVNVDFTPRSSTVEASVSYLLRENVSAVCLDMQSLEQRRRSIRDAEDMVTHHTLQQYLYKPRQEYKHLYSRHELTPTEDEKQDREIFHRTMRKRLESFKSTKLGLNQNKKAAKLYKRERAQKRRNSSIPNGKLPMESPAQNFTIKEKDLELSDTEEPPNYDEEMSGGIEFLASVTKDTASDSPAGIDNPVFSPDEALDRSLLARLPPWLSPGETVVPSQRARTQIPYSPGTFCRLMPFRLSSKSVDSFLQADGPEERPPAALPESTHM
Test: Recovery of intracellular pH (pHi) after acidification in LAP1 cells stably expressing NHE3 (BCECF fluorescence, FLIPR)
Assay type: cell-based
Conditions: LAP1 cells stably expressing NHE3; pH recovery after acidification; range 1 is % inhibition at 10 μM; read-out: Activity range (inhibitory effect on NHE3)

Structure (SMILES)	IC50 [nM]	inhibition at 10 µM [%]
Cn1ccn(-c2cc(O[C@H]3c4cc(Cl)cc(Cl)c4C[C@@H]3N3CC[C@@H](O)C3)ccc2Cl)c1=O [Example 310, 1-{2-chloro-5-[(1S,2S)-4,6-dichloro-2-((R)-3-hydroxypyrrolidin-1-yl)indan-1-yloxy]phenyl}-3-methyl-1,3-dihydroimidazol-2-one]		20 to 50
N[C@H]1CCCN([C@H]2CCc3ccccc3[C@@H]2Oc2ccc(F)cc2-c2ccno2)C1 (racemic) [Example 178, (S)-1-[rac-trans-(1,2)-1-(4-fluoro-2-isoxazol-5-ylphenoxy)-1,2,3,4-tetrahydronaphthalen-2-yl]piperidin-3-ylamine]		20 to 50
O=C1OCCN1c1ccc(O[C@H]2c3cc(Cl)cc(Cl)c3C[C@@H]2N2CC[C@@H](O)C2)cc1 [Example 429, 3-{4-[trans-(1S,2S)-4,6-dichloro-2-((R)-3-hydroxypyrrolidin-1-yl)indan-1-yloxy]phenyl}oxazolidin-2-one]	1000 to 10000	
Cn1ccn(-c2ccc(F)c(O[C@H]3c4cc(Cl)cc(F)c4C[C@@H]3N3CC[C@@H](O)C3)c2)c1=O [Example 318, 1-{3-[(1S,2S)-6-chloro-4-fluoro-2-((R)-3-hydroxypyrrolidin-1-yl)indan-1-yloxy]-4-fluorophenyl}-3-methyl-1,3-dihydroimidazol-2-one]	< 1000	
N[C@@H]1CCCN([C@@H]2Cc3ccccc3[C@H]2Oc2ccc(F)cc2F)C1 (racemic) [Example 33, (R)-1-[rac-trans-(1,2)-1-(2,4-difluorophenoxy)indan-2-yl]piperidin-3-ylamine]	1000 to 10000	
NC(=O)c1cc(Cl)ccc1O[C@H]1c2ccccc2CC[C@@H]1N1CCC[C@@H](N)C1 (racemic) [Example 365, 2-[rac-trans-(1,2)-2-((R)-3-aminopiperidin-1-yl)-1,2,3,4-tetrahydronaphthalen-1-yloxy]-5-chlorobenzamide]	1000 to 10000	
COc1cc(O[C@H]2c3ccccc3CC[C@@H]2N2CCC[C@@H](N)C2)ccc1Br (racemic) [Example 63, (R)-1-[rac-trans-(1,2)-1-(4-bromo-3-methoxyphenoxy)-1,2,3,4-tetrahydronaphthalen-2-yl]piperidin-3-ylamine]		20 to 50
N#Cc1cc(Cl)ccc1O[C@H]1c2ccccc2CC[C@@H]1N1CCC[C@H](N)C1 (racemic) [Example 371, 2-[rac-trans-(1,2)-2-((S)-3-aminopiperidin-1-yl)-1,2,3,4-tetrahydronaphthalen-1-yloxy]-5-chlorobenzonitrile]		20 to 50
N[C@H]1CCCN([C@H]2CCc3ccccc3[C@@H]2Oc2ccc3cc[nH]c3c2)C1 (racemic) [Example 148, (S)-1-[rac-trans-(1,2)-1-(1H-indol-6-yloxy)-1,2,3,4-tetrahydronaphthalen-2-yl]piperidin-3-ylamine]		20 to 50
CS(=O)(=O)c1ccc(O[C@H]2c3cc(Cl)cc(Cl)c3C[C@@H]2N2CCCNCC2)c(Cl)c1 [Example 295, 1-[trans-(1S,2S)-4,6-dichloro-1-(2-chloro-4-methanesulfonylphenoxy)indan-2-yl]-[1,4]diazepane]	< 1000	
N[C@@H]1CCCN([C@H]2CCc3ccccc3[C@@H]2Oc2ccc(Cl)cc2-c2cc[nH]n2)C1 (racemic) [Example 119, (R)-1-{rac-trans-(1,2)-1-[4-chloro-2-(1H-pyrazol-3-yl)phenoxy]-1,2,3,4-tetrahydronaphthalen-2-yl}piperidin-3-ylamine]	< 1000	
CCNS(=O)(=O)c1ccc(O[C@@H]2c3ccccc3C[C@H]2N2CCCC2)cc1 (racemic) [Example 700, N-ethyl-4-(rac-trans-(1,2)-2-pyrrolidin-1-ylindan-1-yloxy)benzenesulfonamide]	< 1000	
NCC1CCN([C@@H]2Cc3ccccc3[C@H]2Oc2ccc3[nH]cc(CC(N)=O)c3c2)C1 (mixture of isomers) [Example 386, 2-{5-[rac-trans-(1,2)-2-(3-aminomethylpyrrolidin-1-yl)indan-1-yloxy]-1H-indol-3-yl}acetamide]	1000 to 10000	
O=C1CCCN1c1ccc(O[C@H]2c3cc(Cl)cc(Cl)c3C[C@@H]2N2CC[C@@H](O)C2)cc1 [Example 333, 1-{4-[trans-(1S,2S)-4,6-dichloro-2-((R)-3-hydroxypyrrolidin-1-yl)indan-1-yloxy]phenyl}pyrrolidin-2-one]	< 1000	
Clc1cnccc1O[C@H]1c2ccccc2C[C@@H]1N1CCCC1 (racemic) [Example 441, 3-chloro-4-(2-pyrrolidin-1-ylindan-1-yloxy)pyridine]	1000 to 10000	
C[C@@H]1CN([C@H]2Cc3c(Cl)cc(Cl)cc3[C@@H]2Oc2ccc(S(C)(=O)=O)cc2)CCN1 [Example 101, (R)-1-[trans-(1S,2S)-4,6-dichloro-1-(4-methanesulfonylphenoxy)indan-2-yl]-3-methylpiperazine]	< 1000	
CN(C1CCCNC1)[C@@H]1Cc2ccccc2[C@H]1Oc1cccc2[nH]ccc12 (mixture of isomers) [Example 214, [rac-trans-(1,2)-1-(1H-indol-4-yloxy)indan-2-yl]methylpiperidin-3-ylamine]	1000 to 10000	

Further lines, results first:

IC50 [nM]	inhibition at 10 µM [%]	Structure (SMILES)
1000 to 10000		Cc1nc(C(C)(C)C)cn1-c1ccc(O[C@H]2c3cc(Cl)cc(Cl)c3C[C@@H]2N2CC[C@@H](O)C2)c(F)c1 [Example 729, (R)-1-{trans-(1S,2S)-1-[4-(4-tert-Butyl-2-methyl-imidazol-1-yl)-2-fluoro-phenoxy]-4,6-dichloro-indan-2-yl}-pyrrolidin-3-ol]
< 1000		N[C@@H]1CCCN([C@@H]2Cc3ccccc3[C@H]2Oc2ccc(S(N)(=O)=O)c(Cl)c2Cl)C1 (racemic) [Example 518, 4-[rac-trans-(1,2)-2-((R)-3-aminopiperidin-1-yl)indan-1-yloxy]-2,3-dichlorobenzenesulfonamide]
	20 to 50	NS(=O)(=O)c1ccc(O[C@H]2c3ccccc3C[C@@H]2CN2CCOCC2)c(F)c1 (racemic) [Example 449, 3-fluoro-4-(2-morpholin-4-ylmethylindan-1-yloxy)benzenesulfonamide]
1000 to 10000		CCn1c(C)nn(-c2ccc(O[C@H]3c4cc(Cl)cc(Cl)c4C[C@@H]3N3CC[C@@H](O)C3)cc2)c1=O [Example 737, 2-{4-[trans-(1S,2S)-4,6-Dichloro-2-((R)-3-hydroxy-pyrrolidin-1-yl)-indan-1-yloxy]-phenyl}-4-ethyl-5-methyl-2,4-dihydro-[1,2,4]triazol-3-one]
	20 to 50	NS(=O)(=O)c1ccc(O[C@H]2c3cccc(Cl)c3C[C@@H]2N2CCCC2)cc1 (racemic) [Example 471, 4-(rac-trans-(1,2)-4-chloro-2-pyrrolidin-1-ylindan-1-yloxy)benzenesulfonamide]
< 1000		N[C@@H]1CCCN([C@H]2Cc3c(Cl)cc(Cl)cc3[C@@H]2Oc2ccc(S(N)(=O)=O)c(Cl)c2Cl)C1 [Example 550, 4-[trans-(1S,2S)-2-((R)-3-aminopiperidin-1-yl)-4,6-dichloroindan-1-yloxy]-2,3-dichlorobenzenesulfonamide]
1000 to 10000		CC(=O)Nc1cccc(O[C@H]2c3cccc(F)c3C[C@@H]2N2CCCC2)c1 (racemic) [Example 652, N-[3-(rac-trans-(1,2)-4-fluoro-2-pyrrolidin-1-ylindan-1-yloxy)phenyl]acetamide]
1000 to 10000		N[C@H]1CCCN([C@@H]2Cc3ccccc3[C@H]2Oc2ccc(S(N)(=O)=O)c(Cl)c2Cl)C1 (racemic) [Example 536, 4-[rac-trans-(1,2)-2-((S)-3-aminopiperidin-1-yl)indan-1-yloxy]-2,3-dichlorobenzenesulfonamide]
< 1000		O=C1COCC(=O)N1c1ccc(O[C@H]2c3cc(Cl)cc(Cl)c3C[C@@H]2N2CC[C@@H](O)C2)c(F)c1 [Example 560, 4-{4-[(1S,2S)-4,6-dichloro-2-((R)-3-hydroxypyrrolidin-1-yl)indan-1-yloxy]-3-fluorophenyl}morpholine-3,5-dione]
< 1000		Cc1nnc(C)n1-c1ccc(O[C@H]2c3cc(Cl)cc(Cl)c3C[C@@H]2N2CCCC2)cc1 [Example 500, 4-[4-(trans-(1S,2S)-4,6-dichloro-2-pyrrolidin-1-ylindan-1-yloxy)phenyl]-3,5-dimethyl-4H-[1,2,4]triazole]
< 1000		CC(=O)Nc1cccc(O[C@H]2c3ccccc3C[C@@H]2N2CCC[C@@H](NCCF)C2)c1 [Example 631, N-(3-{trans-(1S,2S)-2-[(R)-3-(2-fluoroethylamino)piperidin-1-yl]indan-1-yloxy}phenyl)-acetamide]
1000 to 10000		N#Cc1ccc(O[C@H]2c3ccccc3CC[C@@H]2N2CCC[C@H](N)C2)cc1 (racemic) [Example 535, 4-[rac-trans-(1,2)-2-((S)-3-aminopiperidin-1-yl)-1,2,3,4-tetrahydronaphthalen-1-yloxy]benzonitrile]
1000 to 10000		Cc1ccc2c(c1)C(Oc1ccc(S(N)(=O)=O)cc1)C(N1CCCC1)C2 (racemic) [Example 475, 4-(rac-trans-(1,2)-6-methyl-2-pyrrolidin-1-ylindan-1-yloxy)benzenesulfonamide]
